Assays:
[1] = molecular target: T1, Voltage-gated inwardly rectifying potassium channel KCNH2 (Homo sapiens, UniProt Q12809); assay: Inhibition of hERG in HEK293 cells at -80 mV holding potential by automated patch clamp electrophysiology; format: toxicity, cell-based
[2] = molecular target: T2, Bromodomain-containing protein 3 (Homo sapiens, UniProt Q15059); assay: Inhibition of BRD3 BD1 (unknown origin) using biotinylated tetra-acetylated H4 peptide SGRG-K(Ac)-GG-K(Ac)-GLG-K(Ac)-GGA-K(Ac)-RHRK-Biotin as substrate incubated for 1 hr by TR-FRET assay
T2 sequence (Q15059 whole entry): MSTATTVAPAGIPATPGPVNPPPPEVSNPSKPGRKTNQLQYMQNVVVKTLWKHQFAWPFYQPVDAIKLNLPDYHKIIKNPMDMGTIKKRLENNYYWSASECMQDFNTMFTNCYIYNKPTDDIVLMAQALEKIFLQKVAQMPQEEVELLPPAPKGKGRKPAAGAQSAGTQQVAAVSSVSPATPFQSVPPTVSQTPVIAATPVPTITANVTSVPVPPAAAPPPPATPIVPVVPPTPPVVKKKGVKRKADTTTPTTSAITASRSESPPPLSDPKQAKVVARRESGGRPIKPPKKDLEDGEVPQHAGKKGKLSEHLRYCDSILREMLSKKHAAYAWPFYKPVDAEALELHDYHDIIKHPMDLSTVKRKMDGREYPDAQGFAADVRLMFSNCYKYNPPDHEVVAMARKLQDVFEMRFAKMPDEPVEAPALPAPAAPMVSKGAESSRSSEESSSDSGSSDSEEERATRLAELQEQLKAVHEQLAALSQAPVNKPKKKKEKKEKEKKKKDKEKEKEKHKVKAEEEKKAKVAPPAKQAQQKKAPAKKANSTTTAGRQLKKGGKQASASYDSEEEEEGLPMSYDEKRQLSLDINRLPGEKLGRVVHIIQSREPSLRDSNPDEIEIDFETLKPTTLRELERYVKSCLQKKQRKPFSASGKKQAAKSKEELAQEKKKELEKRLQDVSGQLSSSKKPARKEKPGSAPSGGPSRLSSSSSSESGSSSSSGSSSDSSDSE

[3] = molecular target: T3, Bromodomain testis-specific protein (Homo sapiens, UniProt Q58F21); assay: Inhibition of BRDT BD1 (unknown origin) using biotinylated tetra-acetylated H4 peptide SGRG-K(Ac)-GG-K(Ac)-GLG-K(Ac)-GGA-K(Ac)-RHRK-Biotin as substrate incubated for 1 hr by TR-FRET assay
[4] = molecular target: T2, Bromodomain-containing protein 3; assay: Inhibition of BRD3 BD2 (unknown origin) using biotinylated tetra-acetylated H4 peptide SGRG-K(Ac)-GG-K(Ac)-GLG-K(Ac)-GGA-K(Ac)-RHRK-Biotin as substrate incubated for 1 hr by TR-FRET assay
[5] = molecular target: T3, Bromodomain testis-specific protein; assay: Inhibition of BRDT BD2 (unknown origin) using biotinylated tetra-acetylated H4 peptide SGRG-K(Ac)-GG-K(Ac)-GLG-K(Ac)-GGA-K(Ac)-RHRK-Biotin as substrate incubated for 1 hr by TR-FRET assay
[6] = molecular target: T4, Bromodomain-containing protein 2 (Homo sapiens, UniProt P25440); assay: Inhibition of BRD2 BD1 (unknown origin) using biotinylated tetra-acetylated H4 peptide SGRG-K(Ac)-GG-K(Ac)-GLG-K(Ac)-GGA-K(Ac)-RHRK-Biotin as substrate incubated for 1 hr by TR-FRET assay
T4 sequence (P25440 whole entry): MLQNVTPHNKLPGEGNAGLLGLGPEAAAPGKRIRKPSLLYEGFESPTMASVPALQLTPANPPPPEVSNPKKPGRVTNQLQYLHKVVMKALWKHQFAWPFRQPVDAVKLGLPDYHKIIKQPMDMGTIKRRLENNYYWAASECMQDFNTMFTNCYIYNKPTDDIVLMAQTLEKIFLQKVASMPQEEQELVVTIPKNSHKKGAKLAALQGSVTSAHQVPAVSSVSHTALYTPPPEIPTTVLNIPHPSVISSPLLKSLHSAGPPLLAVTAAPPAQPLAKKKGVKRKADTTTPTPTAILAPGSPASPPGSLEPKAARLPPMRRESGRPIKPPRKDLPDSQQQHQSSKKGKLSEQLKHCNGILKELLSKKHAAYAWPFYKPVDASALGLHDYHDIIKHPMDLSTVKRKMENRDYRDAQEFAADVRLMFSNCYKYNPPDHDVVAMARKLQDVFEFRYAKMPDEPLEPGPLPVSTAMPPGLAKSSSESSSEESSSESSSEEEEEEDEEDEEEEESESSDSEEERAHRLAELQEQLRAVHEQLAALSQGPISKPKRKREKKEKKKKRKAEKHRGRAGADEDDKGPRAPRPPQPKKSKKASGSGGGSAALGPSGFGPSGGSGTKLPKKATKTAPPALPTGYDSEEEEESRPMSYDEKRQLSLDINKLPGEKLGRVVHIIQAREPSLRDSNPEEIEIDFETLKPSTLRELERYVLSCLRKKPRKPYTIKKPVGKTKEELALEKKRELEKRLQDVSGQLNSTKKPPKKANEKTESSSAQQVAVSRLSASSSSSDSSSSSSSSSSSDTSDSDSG

[7] = molecular target: T4, Bromodomain-containing protein 2; assay: Inhibition of BRD2 BD2 (unknown origin) using biotinylated tetra-acetylated H4 peptide SGRG-K(Ac)-GG-K(Ac)-GLG-K(Ac)-GGA-K(Ac)-RHRK-Biotin as substrate incubated for 1 hr by TR-FRET assay
MV4-11 [8] = assay: Antitumor activity against human MV4-11 cells xenografted in BALB/c nude mouse assessed as tumor growth inhibition at 37.5 mg/kg, po administered once daily for 21 days and measured every other day relative to control; format: functional; conditions: MV4-11, 504 h, time 21 day, read-out: TGI
[9] = molecular target: T1, Voltage-gated inwardly rectifying potassium channel KCNH2; assay: Inhibition of hERG expressed in HEK293 cells at -80 mV holding potential by whole-cell patch clamp technique; format: toxicity, cell-based
MOLM-13 = assay: Antiproliferative activity against human MOLM-13 cells assessed as inhibition of cell proliferation incubated for 72 hrs by CellTiterGlo luminescence assay; format: functional, cell-based; conditions: MOLM-13, 72 h
MV4-11 [10] = assay: Antiproliferative activity against human MV4-11 cells assessed as inhibition of cell proliferation incubated for 72 hrs by CellTiterGlo luminescence assay; format: functional, cell-based; conditions: MV4-11, 72 h

T1 sequence (Q12809 whole entry): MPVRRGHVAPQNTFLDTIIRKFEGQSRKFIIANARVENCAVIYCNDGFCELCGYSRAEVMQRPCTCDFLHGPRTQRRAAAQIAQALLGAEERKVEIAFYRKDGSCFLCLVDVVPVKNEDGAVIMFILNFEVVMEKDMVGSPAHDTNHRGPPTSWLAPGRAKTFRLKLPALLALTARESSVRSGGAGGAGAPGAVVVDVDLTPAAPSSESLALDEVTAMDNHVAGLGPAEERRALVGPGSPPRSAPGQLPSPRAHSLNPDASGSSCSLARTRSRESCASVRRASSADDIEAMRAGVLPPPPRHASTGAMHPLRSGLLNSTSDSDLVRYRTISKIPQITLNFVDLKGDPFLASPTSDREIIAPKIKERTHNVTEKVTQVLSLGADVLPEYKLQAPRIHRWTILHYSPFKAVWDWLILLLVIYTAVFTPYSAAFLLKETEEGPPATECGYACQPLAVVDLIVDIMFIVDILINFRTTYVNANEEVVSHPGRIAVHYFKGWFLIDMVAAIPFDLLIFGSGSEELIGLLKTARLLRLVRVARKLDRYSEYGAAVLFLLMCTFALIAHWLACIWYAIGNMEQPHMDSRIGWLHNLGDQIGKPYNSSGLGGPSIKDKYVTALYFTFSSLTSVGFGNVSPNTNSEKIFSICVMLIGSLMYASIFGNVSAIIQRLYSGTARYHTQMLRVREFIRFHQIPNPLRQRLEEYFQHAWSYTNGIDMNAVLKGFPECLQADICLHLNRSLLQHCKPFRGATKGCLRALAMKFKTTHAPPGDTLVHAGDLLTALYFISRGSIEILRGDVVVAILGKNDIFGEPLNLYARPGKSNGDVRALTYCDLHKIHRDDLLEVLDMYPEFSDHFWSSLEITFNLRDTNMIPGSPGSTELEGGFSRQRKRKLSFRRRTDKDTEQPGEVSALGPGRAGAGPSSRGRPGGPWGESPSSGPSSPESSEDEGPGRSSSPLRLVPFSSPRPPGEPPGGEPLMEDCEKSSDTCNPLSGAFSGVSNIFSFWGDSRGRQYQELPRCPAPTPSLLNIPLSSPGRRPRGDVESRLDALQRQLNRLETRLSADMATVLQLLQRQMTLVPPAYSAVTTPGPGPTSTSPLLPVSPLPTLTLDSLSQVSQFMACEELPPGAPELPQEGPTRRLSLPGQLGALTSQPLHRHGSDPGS

IC50 [2] [µM]	IC50 [3] [µM]	IC50 [4] [nM]	IC50 [5] [nM]	IC50 [6] [µM]	IC50 [7] [nM]	IC50 (MOLM-13) [nM]	IC50 (MV4-11 [10]) [nM]	Structure (SMILES)	IC50 [1] [µM]	inhibition in vivo at 37.5 mg/kg (MV4-11 [8]) [%]	IC50 [9] [µM]
								CCNC(=O)COc1cc(=O)n(C)cc1-c1cc(C(C)(C)O)ccc1Oc1c(C)cccc1C	> 30		
12.8	4.39	15.9	9.7	13.5	11.1			Cc1cc(F)cc(C)c1Oc1ccc(C(C)(C)O)cc1-c1cn(C)c(=O)cc1NCC(=O)N1CCOCC1	> 30		
						39	15	CCNC(=O)c1cc2c(-c3cc(C(C)(C)O)ccc3Oc3c(C)cc(F)cc3C)cn(C)c(=O)c2[nH]1 [ABBV-744]	2.8	55	3.1
